This is an account of results in PubChem BioAssay (NCI).

Each structure is given as a SMILES string. Values joined by “and” are separate entries in the source; they are usually repeats but may differ in a detail not shown here. Equal entries are not always repeated.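 Interpolation was linear, between the two tested concentrations surrounding the appropriate level; five concentrations were tested over 48 hours in 96-well plates. TGI: total growth inhibition.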

Holding throughout (experiment): inhibition of tumour cell growth, NCI panel, 48 h
Experiment [1] concerns NCI-H226 lung.
Experiment [2] relates to NCI-H460 lung.
In experiment [3] the test system is SK-MEL-5 melanoma.
The subject of experiment [4] is OVCAR-8 ovarian.
In experiment [5] the test system is HT29 colon.
Experiment [6] deals with MOLT-4 leukemia.
Experiment [7] has as its system RXF 393 renal.
In experiment [8] the test system is KM12 colon.
Experiment [9] relates to CAKI-1 renal.
Experiment [10] deals with NCI-H522 lung.

Regarding `CN(C)CCCNCc1cccc2ccccc12`, the TGI in experiment [1], in [2], in experiment [3], in [4], in experiment [5] and in experiment [6] was more than 100 µM in each case. Moreover, the TGI in [7] and in [8] was more than 100 µM throughout.

Consider `O=C(CSc1nc2ccccc2c(=O)n1-c1ccccc1)N=Nc1c(O)[nH]c2ccc(F)cc12`, for which the TGI was found to be 4.69 µM in [2]; 15.4 µM in experiment [3]; 3.46 µM in [9]; 6.96 µM in [5]; 3.43 µM in [6]; 4.09 µM in experiment [7]. This molecule returned a TGI in experiment [8] of 32.6 µM.

As to `O=c1c2ccccc2nc(N/N=C/c2ccccc2O)n1-c1ccccc1`, the TGI in experiment [1] is more than 100 µM; in experiment [2], more than 100 µM; in experiment [10], 74.7 µM; in [3] it was more than 100 µM; in experiment [9], more than 100 µM; in [4] it was 5.43 µM. Besides, the TGI in experiment [5] and in experiment [7] was more than 100 µM each time.

On to `COC(=O)c1c(O)ccc2c1c1c(n2Cc2ccccc2)C(=O)c2ccccc2C1`, for which the TGI was more than 100 µM in [1]; more than 100 µM in experiment [2]; more than 100 µM in experiment [3]; 87.2 µM in [9]; more than 100 µM in experiment [4]; 37.4 µM in experiment [5]. Moreover, the figures for the TGI in experiment [6], in experiment [7] and in experiment [8] were 37.6 µM, 60 µM and more than 100 µM, respectively.

Take `C=C1CN(C2=NCCO2)C1`: the TGI in experiment [1], in experiment [2], in [3], in [9], in experiment [4] and in [5] was more than 100 µM in each case. The TGI in experiment [6], in experiment [7] and in [8] was more than 100 µM in each case.

As for `O=C(O)CCC(NC(=O)c1ccc(Nc2nc3cc(C(F)(F)F)ccc3nc2C(=O)O)cc1)C(=O)O` (stereo unspecified), the TGI in [1], in [2], in experiment [10], in [3], in experiment [4] and in experiment [5] was more than 100 µM each time. Moreover, the TGI in experiment [6], in experiment [7] and in experiment [8] was more than 100 µM throughout.

In the case of `C=C(C)CNC(=S)N(N)c1ccc2ccccc2c1`, the TGI in [1], in experiment [2], in [10], in experiment [3], in [4] and in experiment [5] was more than 100 µM in each case. The TGI was more than 100 µM in experiment [6], more than 100 µM in experiment [7] and 62.4 µM in [8].

Regarding `CCCCNC(=O)/N=C/c1c(O)c2ccccc2oc1=O`, the TGI in experiment [1], in [2], in [3], in experiment [4], in [5] and in experiment [6] was more than 100 µM throughout. The molecule also gave a TGI in experiment [7] of 79.5 µM.

As for `COc1ccc(Sc2ccccc2N)cc1`, the TGI in [1] is 89.4 µM; in [2], more than 100 µM; in [3], 62.9 µM; in experiment [4], more than 100 µM; in experiment [5], 50.5 µM; in experiment [6] it was more than 100 µM. Also, the TGI was 75.6 µM in [7] and more than 100 µM in experiment [8].

For the molecule `C/C=C(/C)C(=O)O[C@H]1[C@H](O)CC(c2ccc3c(c2O)C(O)=C2C(=O)C4(OC)C(O)=C(C(N)=O)C(=O)[C@H](CC(=O)c5ccccc5O)C4CC2[C@@]3(C)OC)O[C@@H]1C` (stereo partly specified), the TGI in [1] was 2.33 µM; in [10], 1.21 µM and 1.83 µM; in experiment [3], 0.0149 µM and 0.0199 µM; in experiment [4], 1.67 µM and 0.713 µM; in experiment [5] it was 1.19 µM and 0.255 µM; in [6], 10.5 µM. Besides, the TGI in experiment [8] is 0.226 µM and 0.0935 µM.

In the case of `COc1ccc(C2=NN=C3C(c4ccccc4)=Nc4ccccc4N3C2)cc1`, the TGI in experiment [1] is more than 100 µM; in [2] it was more than 100 µM; in experiment [3] it was more than 100 µM; in experiment [5] it was 74.3 µM; in [6], 33.4 µM; in [7] it was 51.8 µM. In [8], the TGI was more than 100 µM.

For `NC(CSSCC(N)Cc1ccccc1)Cc1ccccc1` (stereo unspecified), the TGI in experiment [2] is more than 100 µM; in experiment [10] it was 30.9 µM; in experiment [3] it was 50.4 µM; in [4] it was more than 100 µM; in [5], more than 100 µM; in [6], more than 100 µM. Also, in experiment [8], the TGI amounted to 94 µM.

As to `CCOC(=O)c1c(-c2cccc3ccccc23)c(C#N)c(=S)n(C2OC(COC(C)=O)C(OC(C)=O)C(OC(C)=O)C2OC(C)=O)c1C` (stereo unspecified), the TGI in experiment [1], in [2], in experiment [10], in experiment [3], in experiment [4] and in experiment [5] was more than 100 µM each time. For the same molecule, the TGI in experiment [6], in experiment [7] and in [8] was more than 100 µM in each case.

As for `Cc1ccc(-n2cc([Si](C)(C)C)nn2)s1`, the TGI in experiment [1], in [2], in [10], in experiment [3], in [9] and in experiment [4] was more than 100 µM throughout. The TGI in experiment [5] was more than 100 µM.

With `COC(=O)C1=C(C(=O)OC)SC2(S1)C(C(=O)OC)=C(C(=O)OC)Sc1c2ssc1=NC(C)(C)C`, the TGI in [1] came out at 12.8 µM; in experiment [3], 4.92 µM; in experiment [9], 4.01 µM; in experiment [4], 3.77 µM; in [5], 2.57 µM; in [6], 2.16 µM. The values for the TGI in experiment [7] and in experiment [8] were 1.96 µM and 3.91 µM, respectively.

For the molecule `COC1OC2=CCC3C(=O)NC(=O)C3C2[C@H](OCc2ccccc2)C1OCc1ccccc1` (stereo partly specified), the TGI worked out at 32.6 µM in experiment [2]; 3.18 µM in experiment [10]; 34.1 µM in experiment [3]; 3.07 µM in [4]; 3.36 µM in [5]; 2.99 µM in experiment [7]. The molecule also yielded a TGI in experiment [8] of 19.4 µM.
